Tested on: Melan-a melanocytes
Test: Assay for melanin production in melan-a melanocytes (absorbance of melanin at 490 nm per protein)
Type: cell-based, mice
Details: at 3 μM; average; results of FIG. 1
Procedure: Melan-a melanocytes (α/α, P/P), an immortalized melanocyte line derived from C57BLI6J mice wild type at the p locus (Bennett et al. (1987), Int. J. Cancer 39:414-418), were incubated in Dulbecco's modification of Eagle's medium (DMEM: 10% fetal calf serum, 2 mM L-glutamine, 1 mM sodium pyruvate, 1% MEM non-essential amino acids 100×, […]). Immediately before using the medium, tetradecanoyl phorbol acetate (TPA) was added at 200 nM. Cells were seeded in T-25 flasks with 4×10^4 cells/ml×4.5 ml/flask (10-20% confluent) and were grown at 37° C. with 5% CO2. Twenty-four hours later, a compound to be tested (diluted in 0.5 ml media) was added to the media. Forty-eight hours after the addition of drug, both the media and drug were changed. Cells were harvested after an additional 48 or 72 hours (100% confluent). In harvesting the cells, the reagents and cells were kept at 4° C. Briefly, the media was removed from the cells, and one milliliter of media was reserved if needed for the tyrosinase assay. The cells were then rinsed with approximately 500 μl cold 1×phosphate buffered saline (PBS) until the PBS rinse was clear. […] 2 N NaOH in 20% DMSO was used as a blank, and the samples were read at a wavelength of 490 nm. The data were reported as absorbance of melanin per protein calculated for the total sample. […]

SMILES: C/C=C/C/C=C/CCC(=O)[C@H]1O[C@H]1C(N)=O [cerulenin, [2R,3S]-2,3-epoxy-4-oxo-7,10-trans, trans-dodecanoic acid amide]
- decrease of pigmentation in melan-a melanocytes: 50%
